Data from publication PMC2925893, “Structure Activity Relationship of Dendrimer Microbicides with Dual Action Antiviral Activity” (PLoS ONE, 2010).
Read-outs that look alike come from different tables or passages of the source.

How the values were obtained:
[1] = system: X4 (HXB2) HIV-1 envelope mediated cell-to-cell fusion; test: Cell-to-cell fusion assay, X4 envelope; type: cell-based
Protocol: (§1) The gp120 gene from the R5 HIV-1 strain ADA and X4 HIV-1 strain HXB2 was cloned into a HIV-1 Env expression vector. Briefly, the 2.1 kb HIV-1 env within Kpn I and Bam HI restriction sites was cloned from viral genomic DNA into pSVIII-HXB2 Env expression vector [67]. The pcDNA3-CD4, pcDNA3-CCR5 and pcDNA3-CXCR4 plasmids express human CD4, R5 and X4 respectively. pSVTat expresses the HIV-1 Tat protein. Cell-cell fusion assays were conducted as described previously. Briefly, Cf2-Luc target cells seeded in 25 cm^2 tissue culture flasks were transfected with 1 µg of CD4 plasmid and 3 µg of R5 or X4 plasmid. 293T effector cells seeded in 6-well tissue culture plates were co-transfected with 3.4 µg of ADA or HXB2 gp120-expressing plasmid and 0.6 µg pSVTat. Target and effector cells were transfected using Lipofectamine 2000 (Invitrogen) according to the manufacturers' protocol. Effector cells expressing ADA or HXB2 Env were pre-incubated in DMEM-10 containing 10-fold increasing concentrations of efavarenz, T-20, dendrimer or no drug (untreated controls) for 30 min at 37°C. Approximately 2×10^4 effector cells were added to 2×10^4 Cf2-Luc target cells and were incubated at 37°C in replicate wells containing 200 µl of culture. Cells from replicate wells were harvested at 7 h post-mixing and assayed for luciferase activity (Promega) according to the manufacturers' protocol. […]

HIV-1 NL4.3 = test: Time of addition assay in TZM-bl cells; type: cell-based
Protocol: TZM-bl cells were seeded in 96-well tissue culture plates at 2.5×10^4 cells per well in 100 µl of DMEM-10. Cells were grown for 12 h at 37°C in 5% CO2 after which triplicate wells were infected with NL4.3 at a multiplicity of infection of one by spinoculation. Briefly, DMEM-10 was removed from cells and replaced with 100 µl of virus in DMEM-10 and plates were centrifuged at 1200 g for 60 min at 17°C. Viral inoculum was removed and cells washed twice with 250 µl of cold DMEM-10 after which 100 µl of DMEM-10 or DMEM-10 containing drug was added at t = 0 to appropriate cells. DMEM-10 containing drug was subsequently added at t = 2, 3, 4, 5, 6, 8 and 24 h post infection to appropriate wells. At 31 h postinfection, HIV-1 replication was determined by measuring luciferase activity as above.

HIV-1 strains = test: microbe, parasite or virus in culture; type: cell-based
Protocol: (§2) Fresh human PBMCs were isolated from screened donors, seronegative for HIV and hepatitis B virus. Cells were pelleted/washed 2-3 times by low speed centrifugation and resuspended in Dulbecco’s phosphate buffered saline (PBS) to remove contaminating platelets. The leukophoresed blood was then diluted 1:1 with PBS and layered over 14 ml of Ficoll-Hypaque density gradient (Lymphocyte Separation Medium, Cell Grow #85-072-CL, density 1.078 +/- 0.002 gm/ml) in a 50 ml centrifuge tube and then centrifuged for 30 min at 600g. Banded PBMCs were gently aspirated from the resulting interface and subsequently washed twice with PBS by low speed centrifugation. After the final wash, cells were counted by trypan blue exclusion and resuspended at 1 x 10^7 cells/ml in RPMI 1640 supplemented with 15% Fetal Bovine Serum (FBS), 2 mM L-glutamine, 4 µg/ml PHA-P. The cells were allowed to incubate for 48-72 h at 37°C. After incubation, PBMCs were centrifuged and resuspended in RPMI 1640 with 15% FBS, 2 mM L-glutamine, 100 U/ml penicillin, 100 µg/ml streptomycin, 10 µg/ml gentamycin, and 20 U/ml recombinant human IL-2. PBMCs were maintained in this medium at a concentration of 1-2 x 10^6 cells/ml with biweekly medium changes until used in the assay protocol. Monocytes were depleted from the culture as the result of adherence to the tissue culture flask.
For the standard PBMC assay, PHA-P stimulated cells from at least two normal donors were pooled, diluted in fresh medium to a final concentration of 1 x 10^6 cells/ml, and plated in the wells of a 96-well round bottom microplate at 50 µl/well (5 x 10^4 cells/well). […] Fifty microlitres of a predetermined dilution of virus stock was placed in each test well (final MOI ≅ 0.1). Wells with cells and virus alone were used for virus control. […] The PBMC cultures were maintained for seven days following infection, at which time cell-free supernate samples were collected and assayed for reverse transcriptase activity as described below.
A microtiter plate-based reverse transcriptase (RT) reaction was utilized. Tritiated thymidine triphosphate (^3H-TTP, 80 Ci/mmol, NEN) was received in 1:1 dH2O:ethanol at 1 mCi/ml. PolyrA:oligodT template-primer (Pharmacia) was prepared as a stock solution by combining 150 µl polyrA (20 mg/ml) with 0.5 ml oligodT (20 units/ml) and 5.35 ml sterile dH2O followed by aliquoting (1.0 ml) and storage at -20°C. The RT reaction buffer was prepared fresh on a daily basis and consisted of 125 µl 1.0 M EGTA, 125 µl dH2O, 125 µl 20% Triton X100, 50 µl 1.0 M Tris (pH 7.4), 50 µl 1.0 M DTT, and 40 µl 1.0 M MgCl2. The final reaction mixture was prepared by combining 1 part ^3H-TTP, 4 parts dH2O, 2.5 parts polyrA:oligodT stock and 2.5 parts reaction buffer. Ten microliters of this reaction mixture was placed in a round bottom microtiter plate and 15 µl of virus containing supernatant was added and mixed. The plate was incubated at 37°C for 60 min. Following incubation, the reaction volume was spotted onto DE81 filter-mats (Wallac), washed 5 times for 5 min each in a 5% sodium phosphate buffer or 2X saline sodium citrate (SSC, Life Technologies), 2 times for 1 min each in distilled water, 2 times for 1 min each in 70% ethanol, and then dried. Incorporated radioactivity (counts per minute, CPM) was quantified using standard liquid scintillation techniques.
(§3) The plate was read spectrophotometrically at 490/650 nm with a Molecular Devices Vmax plate reader

HIV-2 strains = test: Anti-HIV activity in PHA-stimulated human PBMCs, supernatant RT activity readout; type: cell-based; settings: PBMC
Protocol: as §2
For the standard PBMC assay, PHA-P stimulated cells from at least two normal donors were pooled, diluted in fresh medium to a final concentration of 1 x 10^6 cells/ml, and plated in the wells of a 96-well round bottom microplate at 50 µl/well (5 x 10^4 cells/well). […] Fifty microlitres of a predetermined dilution of virus stock was placed in each test well (final MOI ≅ 0.1). Wells with cells and virus alone were used for virus control. […]
A microtiter plate-based reverse transcriptase (RT) reaction was utilized. […] Incorporated radioactivity (counts per minute, CPM) was quantified using standard liquid scintillation techniques.
as §3

[2] = system: R5 (ADA) HIV-1 envelope mediated cell-to-cell fusion; test: Cell-to-cell fusion assay, R5 envelope; type: cell-based
Protocol: as §1

HSV-2 strain G = system: HSV-2 strain G; parameters: method as in PMID 16740164; settings: mouse, single dose; cited from earlier work
[3] = PBMC, multi-drug resistant HIV-1 MDR769

## c1cc(CN2CCCNCCNCCCNCC2)ccc1CN1CCCNCCNCCCNCC1 [AMD3100]
[1]
  inhibition of cell-to-cell fusion: failed to inhibit fusion
HIV-1 NL4.3; dendrimers at 20 and 100 µg/ml
  time of addition result: failed to block HIV-1 replication if the drug was added after virus addition

## Cc1cn([C@H]2C[C@H](N=[N+]=[N-])[C@@H](CO)O2)c(=O)[nH]c1=O [AZT, zidovudine]
HIV-1 strains; Human immunodeficiency virus 1, CCR5, PBMC, Clade A (92RW016), CCR5
  EC50: 2 nM
HIV-1 strains; Human immunodeficiency virus 1, CCR5, PBMC, Clade B (302056), CCR5
  EC50: 10 nM
HIV-1 strains; Human immunodeficiency virus 1, CCR5, PBMC, Clade C (92BR025), CCR5
  EC50: 4 nM
HIV-1 strains; Human immunodeficiency virus 1, CCR5, PBMC, Clade G (JV1083), CCR5
  EC50: 4 nM
HIV-1 strains; Human immunodeficiency virus 1, CCR5, PBMC, Clade O (BCF01), CCR5
  EC50: 4 nM
HIV-1 strains; Human immunodeficiency virus 1, CCR5, PBMC, SLKA (NSI), CCR5
  EC50: 4 nM
HIV-1 strains; Human immunodeficiency virus 1, CCR5, PBMC, TEKI (NSI), CCR5
  EC50: 2 nM
HIV-1 strains; Human immunodeficiency virus 1, PBMC, PBMC, Clade D (92UG046), CXCR4
  EC50: 3 nM
HIV-1 strains; Human immunodeficiency virus 1, PBMC, PBMC, Clade EA (CMU02), CXCR4
  EC50: 8 nM
HIV-1 strains; Human immunodeficiency virus 1, PBMC, PBMC, Clade F (93BR020), dual tropic
  EC50: 2 nM
HIV-1 strains; Human immunodeficiency virus 1, PBMC, PBMC, ROJO (SI), CXCR4
  EC50: 2 nM
HIV-1 strains; Human immunodeficiency virus 1, PBMC, PBMC, WEJO (SI), CXCR4
  EC50: 0.3 nM
HIV-1 strains; Human immunodeficiency virus 1, PBMC, read-out: EC50 of positive control, assay validation, PBMC assays
  EC50: ≤ 10 nM
HIV-1 strains; PBMC, Clade A (92RW016)
  SI: >500
HIV-1 strains; PBMC, Clade B (302056)
  SI: >100
HIV-1 strains; PBMC, Clade C (92BR025)
  SI: >250
HIV-1 strains; PBMC, Clade D (92UG046)
  SI: >333
HIV-1 strains; PBMC, Clade EA (CMU02)
  SI: >125
HIV-1 strains; PBMC, Clade F (93BR020)
  SI: >500
HIV-1 strains; PBMC, Clade G (JV1083)
  SI: >250
HIV-1 strains; PBMC, Clade O (BCF01)
  SI: >250
HIV-1 strains; PBMC, ROJO (SI)
  SI: >500
HIV-1 strains; PBMC, SLKA (NSI)
  SI: >250
HIV-1 strains; PBMC, TEKI (NSI)
  SI: >500
HIV-1 strains; PBMC, WEJO (SI)
  SI: >3333
HIV-2 strains; Human immunodeficiency virus 2, HIV-2 CBL-20, AZT column
  EC50: 1 nM
HIV-2 strains; HIV-2 CBL-20
  SI: >1000
HIV-2 strains; HIV-2 CDC 310319
  SI: >1000

## O=C1Nc2ccc(Cl)cc2[C@@](C#CC2CC2)(C(F)(F)F)O1 [efavirenz]
[1]
  inhibition of cell-to-cell fusion: did not inhibit cell-to-cell fusion
[2]
  inhibition of cell-to-cell fusion: did not inhibit cell-to-cell fusion

## Cc1ccnc2c1NC(=O)c1cccnc1N2C1CC1 [nevirapine]
HIV-1 NL4.3
  time post infection that addition could be delayed before loss of HIV-1 inhibitory activity: up to 6 h

## CCCCCCCCCc1ccc(OCCOCCOCCOCCOCCOCCOCCOCCOCCO)cc1 [nonoxynol 9]
HSV-2 strain G
  susceptibility to HSV-2 infection after exposure: susceptibility is greatly increased

## Dextran Sulfate
HIV-1 strains; [3]
  EC50: 1.25 µg/mL
  SI: >80

## maraviroc
[2]
  inhibition of cell-to-cell fusion: failed to inhibit fusion
